Patent US9233933B2, “4,4-disubstituted-1,4-dihydropyrimidines and the use thereof as medicaments for the treatment of hepatitis B” (priority 2012, dated 2016)

Columns and labels:
HBV [1] = experiment: anti HBV activity in HepG2.117 cell line (Tet-off, inducibly HBV producing), intracellular HBV DNA by realtime PCR; type: cell-based, Hepatitis B virus; conditions: HepG2.117 cells, 3 days of treatment, intracellular HBV DNA, read-out: HepG2 117 EC50
in vitro = conditions: human, HepG2 4 days CC50
HBV [2] = experiment: anti-HBV activity in stable transfected HepG2.2.15 cell line, HBV DNA from secreted virions by realtime PCR; type: cell-based, Hepatitis B virus; conditions: HepG2.2.15 cells, 6 days of treatment, secreted virion HBV DNA, read-out: HBV-HepG2 2.15 EC50
[3] = Cytotoxicity in HepG2 cells using CellTiter-Blue, same incubation period as HepG2.2.15 assay; type: cell-based; conditions: human, HepG2 6 days CC50
Procedure: Cytotoxicity of the compounds was tested in HepG2 cells using CellTiter-Blue, with the same incubation period and dose range as in the HepG2.2.15 assay.

[4] = Hepatitis B virus, HepG2.117, 72 h
[5] = Hepatitis B virus, HepG2.2.15, 144 h

Structure (SMILES)	EC50 (HBV [1]; [4]) [µM]	CC50 at 4 days (in vitro) [µM]	EC50 (HBV [2]; [5]) [µM]	CC50 at 6 days [3] [µM]	EC50 (HBV [1]) [µM]	EC50 (HBV [2]) [µM]
COC(=O)C1=C(C)NC(c2ccccn2)=NC12CCOc1ccccc12 (stereo not shown) [Compound 85]	> 50	> 50	> 100	> 100	–	–
COC(=O)C1=C(CN2CCOCC2)NC(c2ccccn2)=NC12CCCc1cc(F)ccc12 (stereo not shown) [Compound 74]	1.33	> 100	2.06	78.3	–	–
COC(=O)C1=C(C)NC(c2ncc(F)cc2F)=NC12c1ccccc1CC2(F)F (stereo not shown) [Compound 115]	> 25	> 25	> 100	> 100	–	–
COC(=O)C1=C(CN2CCOCC2)NC(c2ccccn2)=NC12CCc1c(F)cccc12 (single isomer, unassigned) [Compound 66a]	–	> 100	–	> 100	0.066	< 0.391
COC(=O)C1=C(CN2CCOCC2)NC(c2ccccn2)=NC12CCC(C)(C)c1ccccc12 (stereo not shown) [Compound 72]	72	> 100	54	71.1	–	–
COC(=O)C1=C(CN2CCOCC2)NC(c2ccccn2)=NC12C(F)=Cc1ccccc12 (stereo not shown) [Compound 112]	0.41	> 50	0.624	> 100	–	–
COC(=O)C1=C(C)NC(c2ncc(F)cc2F)=NC12C(=O)N(C)c1cc(F)ccc12 (stereo not shown) [Compound 118]	> 50	> 50	40.7	> 100	–	–
COC(=O)C1=C(CN2CCOCC2)NC(c2ccccn2)=NC12CCOc1ccccc12 (stereo not shown) [Compound 86]	5.49	> 100	8.64	> 100	–	–
COC(=O)C1=C(CN2CCOCC2)NC(c2ccccn2)=NC12CCc1c(F)cccc12 (racemic) [Compound 66]	0.17	> 25	0.207	89.3	–	–
COC(=O)C1=C(C)NC(c2ncc(F)cc2F)=NC12CCc1c2ccc(F)c1F (stereo not shown) [Compound 100]	0.506	> 100	0.546	> 100	–	–
COC(=O)C1=C(CN2CCOCC2)NC(c2ccccn2)=NC12CCc1ccccc12 (stereo not shown) [Compound 89]	0.47	> 100	0.604	> 100	–	–
COC(=O)C1=C(CN2CCOCC2)NC(c2ncc(F)cc2F)=NC12CCc1c2ccc(F)c1F (stereo not shown) [Compound 101]	0.073	> 50	< 0.098	> 25	–	–
COC(=O)C1=C(C)NC(c2ncc(F)cc2F)=NC12c1ccccc1OC2(F)F (stereo not shown) [Compound 106]	> 25	> 25	98.4	> 100	–	–
COC(=O)C1=C(C)NC(c2ccccn2)=NC12c1ccccc1CC2(F)F (stereo not shown) [Compound 111]	> 50	> 50	81.8	> 100	–	–
COC(=O)C1=C(CN2CCOCC2)NC(c2ccccn2)=NC12c1ccccc1OC2(F)F (stereo not shown) [Compound 124]	2.41	> 25	13	48.4	–	–
COC(=O)C1=C(CN2CCOCC2)NC(c2ncc(F)cc2F)=NC12CC(C)(C)c1ccccc12 (stereo not shown) [Compound 93]	81.2	> 100	53.4	41.5	–	–
CCOC(=O)C1=C(CN2CCOCC2)NC(c2ccccn2)=NC12CCC(C)(C)c1ccccc12 (stereo not shown) [Compound 56]	52.6	> 100	35.2	36.4	–	–
COC(=O)C1=C(C)NC(c2ncc(F)cc2F)=NC12c1ccccc1OC2(F)F (single isomer, unassigned) [Compound 106a]	> 50	> 50	–	> 100	–	> 100
COC(=O)C1=C(CN2CCOCC2)NC(c2ccccn2)=NC12c1ccccc1CC2(F)F (stereo not shown) [Compound 110]	6.14	> 50	10.7	> 100	–	–
